In ChEMBL document CHEMBL1134524, “Utilization of an intramolecular hydrogen bond to increase the CNS penetration of an NK(1) receptor antagonist” (J Med Chem, 2001) one finds IC50 and minimal effective dose data, which are given here for six molecules.

In general, IC50 refers to the concentration needed to halve the response being measured. The low end stands for higher potency, the high end for lower potency.

Molecules are shown by their SMILES.

The first assay deals with Substance-P receptor (Homo sapiens, UniProt P25103). The experiment in a line: Inhibition of specific binding at tachykinin receptor 1.
Sequence of Substance-P receptor (P25103 whole entry): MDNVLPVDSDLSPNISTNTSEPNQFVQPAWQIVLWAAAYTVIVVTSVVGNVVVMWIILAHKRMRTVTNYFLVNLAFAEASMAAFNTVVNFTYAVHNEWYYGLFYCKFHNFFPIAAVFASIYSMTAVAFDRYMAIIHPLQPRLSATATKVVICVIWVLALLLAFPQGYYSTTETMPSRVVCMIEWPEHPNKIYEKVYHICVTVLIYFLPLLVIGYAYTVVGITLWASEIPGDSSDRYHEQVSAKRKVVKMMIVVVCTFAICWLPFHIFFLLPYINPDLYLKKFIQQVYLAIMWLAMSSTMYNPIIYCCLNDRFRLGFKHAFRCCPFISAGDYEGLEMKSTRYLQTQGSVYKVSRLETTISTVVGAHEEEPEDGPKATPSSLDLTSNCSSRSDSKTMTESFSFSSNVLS
Conditions: not given
`COC[C@](Cc1c[nH]c2ccccc12)(NC(=O)OCc1cc2ccccc2o1)C(=O)N[C@@H](C)c1ccccc1` came in with an IC50 of 0.7 nM.
`C[C@H](NC(=O)[C@](Cc1c[nH]c2ccccc12)(CN(C)C)NC(=O)OCc1cc2ccccc2o1)c1ccccc1` showed an IC50 of 0.46 nM.
Still for that read-out and setting: then `CC(C)C[C@](Cc1c[nH]c2ccccc12)(NC(=O)OCc1cc2ccccc2o1)C(=O)N[C@@H](C)c1ccccc1`, with 3.79 nM.
Still for that read-out and setting: next, `CCC[C@](Cc1c[nH]c2ccccc12)(NC(=O)OCc1cc2ccccc2o1)C(=O)N[C@@H](C)c1ccccc1`: 0.85 nM.
In turn, `C[C@H](NC(=O)[C@@H](Cc1c[nH]c2ccccc12)NC(=O)OCc1cc2ccccc2o1)c1ccccc1` showed an IC50 of 0.73 nM.
As to `CC[C@](Cc1c[nH]c2ccccc12)(NC(=O)OCc1cc2ccccc2o1)C(=O)N[C@@H](C)c1ccccc1`, the IC50 amounted to 0.96 nM.

In the next assay the test system is Meriones unguiculatus. Nature of the assay: Minimal effective dose to antagonize the foot tapping response when administered subcutaneously (0.1-10 mg/kg) in gerbil. The note with it: sc, read-out: MED.
On to `C[C@H](NC(=O)[C@](Cc1c[nH]c2ccccc12)(CN(C)C)NC(=O)OCc1cc2ccccc2o1)c1ccccc1`, for which the minimal effective dose is 1 mg/kg.
